Measured values taken from patent publication US20170342026A1, “ISOPROPOXY-PHENYLGUANIDINE SERIES SALT AND APPLICATION THEREOF IN PREPARING GROWTH PROMOTERS FOR ANIMAL FEED” (GUANGZHOU INSIGHTER BIOTECHNOLOGY CO., LTD., priority 2015, published 2017).

Columns and labels:
Format in all cases: in vivo
[1] = tested on: Cherry Valley ducks; test: Effects of the salts of isopropoxy-phenylguanidine in a feed for ducks; conditions: 50 ppm in feed, 28 days; for Average daily weight gain / Feed conversion ratio: ducks aged 1 day; for effect on production performance compared with hydrochloride: ducks
Procedure: Six hundred (600) Cherry Valley ducks aged 1 day were randomly divided into 6 groups, each with 100 ducks. Different types of salts of isopropoxy-phenylguanidine were added to the feed according to Table 4. The ducks were free feeding and drinking during the test period of 28 days.

[2] = tested on: broilers; test: Effects of the series of salts of isopropoxy-phenylguanidine on production performance of broilers; conditions: 50 ppm in feed, 30 days; for Average daily weight gain / Average feed conversion ratio / Survival rate (%): 1-day-old broilers; for effect on production performance compared with hydrochloride: broilers
Procedure: One thousand and five hundred (1500) 1-day-old broilers were divided into 15 groups and each group with 100 broilers. Different types of salts of isopropoxy-phenylguanidine were added to the same basic diets. The broilers were free feeding and drinking and continued feeding for 30 days, then to collect statistics of the production performance and the survival rate of broilers in each group.

[3] = tested on: Duroc×Landrace×Large White piglets; test: Effects of the salts of isopropoxy-phenylguanidine in a feed for pigs; conditions: 100 ppm in feed; for Average daily weight gain / Feed conversion ratio: piglets aged 28 days; for effect on production performance compared with hydrochloride: pigs, 28 days
Procedure: One hundred and twenty (120) Duroc×Landrace×Large White piglets aged 28 days with similar body weight were randomly divided into 6 groups, each with 20 pigs. Different types of salts of isopropoxy-phenylguanidine were added to the feeds respectively in accordance with Table 3. The pigs were free feeding and drinking during the test period of 28 days.

[4] = tested on: broilers; test: Effects of different concentrations of isopropoxy-phenylguanidine methanesulfonate on production performance of broilers
Procedure: Eight hundred (800) broilers aged 1 day were divided into 8 groups and each group with 100 broilers. Different concentrations of isopropoxy-phenylguanidine methanesulfonate were added to the same basic diets. The broilers were free feeding and drinking and continued feeding for 30 days, then to collect statistics of the production performance and the survival rate of broilers in each group.

[5] = broilers, 5 ppm in feed, 30 days
[6] = broilers, 10 ppm in feed, 30 days
[7] = broilers, 20 ppm in feed, 30 days
[8] = broilers, 50 ppm in feed, 30 days
[9] = broilers, 100 ppm in feed, 30 days
[10] = broilers, 200 ppm in feed, 30 days
[11] = broilers, 500 ppm in feed, 30 days

CC(C)Oc1ccc(C=NNC(=N)NN=Cc2ccc(OC(C)C)cc2)cc1.O=P(O)(O)O [isopropoxy-phenylguanidine phosphate, 2,2′-bis[[4-(isopropoxy)phenyl]methylene]-diaminoguanidine phosphate]
Average daily weight gain [1]: 61.2 g
Feed conversion ratio [1]: 1.926
Average daily weight gain [2]: 44.0 g
Average feed conversion ratio [2]: 2.139
Survival rate (%) [2]: 100%

CC(C)Oc1ccc(C=NNC(=N)NN=Cc2ccc(OC(C)C)cc2)cc1.O=C(O)/C=C\C(=O)O [isopropoxy-phenylguanidine maleate, 2,2′-bis[[4-(isopropoxy)phenyl]methylene]-diaminoguanidine maleate]
Average daily weight gain [2]: 44.1 g
Average feed conversion ratio [2]: 2.137
Survival rate (%) [2]: 100%

CC(C)Oc1ccc(C=NNC(=N)NN=Cc2ccc(OC(C)C)cc2)cc1.O=C(O)C(O)C(O)C(=O)O [isopropoxy-phenylguanidine tartrate, 2,2′-bis[[4-(isopropoxy)phenyl]methylene]-diaminoguanidine tartrate]
Average daily weight gain [2]: 43.9 g
Average feed conversion ratio [2]: 2.131
Survival rate (%) [2]: 98%

CC(C)Oc1ccc(C=NNC(=N)NN=Cc2ccc(OC(C)C)cc2)cc1.O=C(O)c1ccccc1 [isopropoxy-phenylguanidine benzoate, 2,2′-bis[[4-(isopropoxy)phenyl]methylene]-diaminoguanidine benzoate]
Average daily weight gain [2]: 44.7 g
Average feed conversion ratio [2]: 2.126
Survival rate (%) [2]: 100%

CC(C)Oc1ccc(C=NNC(=N)NN=Cc2ccc(OC(C)C)cc2)cc1.O=C(O)CCC(=O)O [isopropoxy-phenylguanidine succinate, 2,2′-bis[[4-(isopropoxy)phenyl]methylene]-diaminoguanidine succinate]
Average daily weight gain [2]: 43.6 g
Average feed conversion ratio [2]: 2.143
Survival rate (%) [2]: 100%

CC(C)Oc1ccc(C=NNC(=N)NN=Cc2ccc(OC(C)C)cc2)cc1.Cl [isopropoxy-phenylguanidine hydrochloride, 2,2′-bis[[4-(isopropoxy)phenyl]methylene]-diaminoguanidine hydrochloride, reference compound]
Average daily weight gain [3]: 512 g
Feed conversion ratio [3]: 1.754
Average daily weight gain [1]: 65.3 g
Feed conversion ratio [1]: 1.874
Average daily weight gain [2]: 46.6 g
Average feed conversion ratio [2]: 2.087
Survival rate (%) [2]: 100%

CC(C)Oc1ccc(C=NNC(=N)NN=Cc2ccc(OC(C)C)cc2)cc1.CS(=O)(=O)O [2,2′-bis[[4-(isopropoxy)phenyl]methylene]-diaminoguanidine methanesulfonate]
Average daily weight gain [3]: 529 g
Feed conversion ratio [3]: 1.713
effect on production performance compared with hydrochloride [3]: better than hydrochloride
Average daily weight gain [1]: 68.4 g
Feed conversion ratio [1]: 1.831
effect on production performance compared with hydrochloride [1]: better than hydrochloride
Average daily weight gain [2]: 48.8 g
Average feed conversion ratio [2]: 1.999
Survival rate (%) [2]: 100%
effect on production performance compared with hydrochloride [2]: better than hydrochloride
Daily weight gain [4, 5]: 42.3 g
Feed conversion ratio [4, 5]: 2.150
Survival rate (%) [4, 5]: 100%
Daily weight gain [4, 6]: 43.4 g
Feed conversion ratio [4, 6]: 2.138
Survival rate (%) [4, 6]: 100%
Daily weight gain [4, 7]: 44.5 g
Feed conversion ratio [4, 7]: 2.119
Survival rate (%) [4, 7]: 100%
Daily weight gain [4, 8]: 48.9 g
Feed conversion ratio [4, 8]: 2.087
Survival rate (%) [4, 8]: 100%
Daily weight gain [4, 9]: 49.6 g
Feed conversion ratio [4, 9]: 2.076
Survival rate (%) [4, 9]: 100%
Daily weight gain [4, 10]: 49.2 g
Feed conversion ratio [4, 10]: 2.071
Survival rate (%) [4, 10]: 100%
Daily weight gain [4, 11]: 49.5 g
Feed conversion ratio [4, 11]: 2.073
Survival rate (%) [4, 11]: 100%
effect on production performance of broilers ([4]; different concentrations (5-500 ppm) in feed, 30 days): significantly improve the production performance
negative impacts on the production performance ([4]; high concentrations in feed, broilers): no negative impacts

CC(C)Oc1ccc(C=NNC(=N)NN=Cc2ccc(OC(C)C)cc2)cc1.O=S(=O)(O)CCO [2,2′-bis[[4-(isopropoxy)phenyl]methylene]-diaminoguanidine 2-hydroxyethylsulfonate]
Average daily weight gain [3]: 537 g
Feed conversion ratio [3]: 1.697
effect on production performance compared with hydrochloride [3]: better than hydrochloride
Average daily weight gain [1]: 67.9 g
Feed conversion ratio [1]: 1.835
effect on production performance compared with hydrochloride [1]: better than hydrochloride
Average daily weight gain [2]: 49.1 g
Average feed conversion ratio [2]: 1.987
Survival rate (%) [2]: 100%
effect on production performance compared with hydrochloride [2]: better than hydrochloride

CC(=O)O.CC(C)Oc1ccc(C=NNC(=N)NN=Cc2ccc(OC(C)C)cc2)cc1 [isopropoxy-phenylguanidine acetate, 2,2′-bis[[4-(isopropoxy)phenyl]methylene]-diaminoguanidine acetate]
Average daily weight gain [2]: 43.2 g
Average feed conversion ratio [2]: 2.129
Survival rate (%) [2]: 99%

CC(C)Oc1ccc(C=NNC(=N)NN=Cc2ccc(OC(C)C)cc2)cc1.O=C(O)/C=C/C(=O)O [isopropoxy-phenylguanidine fumarate, 2,2′-bis[[4-(isopropoxy)phenyl]methylene]-diaminoguanidine fumarate]
Average daily weight gain [2]: 44.1 g
Average feed conversion ratio [2]: 2.136
Survival rate (%) [2]: 99%

CC(C)Oc1ccc(C=NNC(=N)NN=Cc2ccc(OC(C)C)cc2)cc1.O=C(O)CC(O)(CC(=O)O)C(=O)O [isopropoxy-phenylguanidine citrate, 2,2′-bis[[4-(isopropoxy)phenyl]methylene]-diaminoguanidine citrate]
Average daily weight gain [3]: 491 g
Feed conversion ratio [3]: 1.803
Average daily weight gain [2]: 44.5 g
Average feed conversion ratio [2]: 2.125
Survival rate (%) [2]: 100%

CC(C)Oc1ccc(C=NNC(=N)NN=Cc2ccc(OC(C)C)cc2)cc1.CC(O)C(=O)O [isopropoxy-phenylguanidine lactate, 2,2′-bis[[4-(isopropoxy)phenyl]methylene]-diaminoguanidine DL-lactate]
Average daily weight gain [3]: 535 g
Feed conversion ratio [3]: 1.701
effect on production performance compared with hydrochloride [3]: better than hydrochloride
Average daily weight gain [1]: 67.8 g
Feed conversion ratio [1]: 1.827
effect on production performance compared with hydrochloride [1]: better than hydrochloride
Average daily weight gain [2]: 47.9 g
Average feed conversion ratio [2]: 2.006
Survival rate (%) [2]: 100%
effect on production performance compared with hydrochloride [2]: better than hydrochloride

CC(C)Oc1ccc(C=NNC(=N)NN=Cc2ccc(OC(C)C)cc2)cc1.O=C(O)C(=O)O [isopropoxy-phenylguanidine oxalate, 2,2′-bis[[4-(isopropoxy)phenyl]methylene]-diaminoguanidine oxalate]
Average daily weight gain [2]: 43.1 g
Average feed conversion ratio [2]: 2.145
Survival rate (%) [2]: 100%

CC(C)Oc1ccc(C=NNC(=N)NN=Cc2ccc(OC(C)C)cc2)cc1.O=S(=O)(O)O [isopropoxy-phenylguanidine sulfate, 2,2′-bis[[4-(isopropoxy)phenyl]methylene]-diaminoguanidine sulfate]
Average daily weight gain [2]: 43.7 g
Average feed conversion ratio [2]: 2.131
Survival rate (%) [2]: 100%
